Key:
Assay in all cases: relative viability (nuclei count vs DMSO), 5 days (fraction); higher = more cells survive
[1] = compound: C1COCCN1C2=NC(=NC3=C2OC4=C3C=CC=N4)C5=CC(=CC=C5)NC(=O)C6=CN=C(C=C6)N + COc1cccc2cc(-c3nc([C@H]4CC[C@H](C(=O)O)CC4)n4ncnc(N)c34)[nH]c12 [OSI-027] (partner 0.5 µM)
Method in brief: (§1)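 Values are medians from duplicate plates. Each reflects relative viability, defined as the nuclei count of treated wells over that of vehicle wells. Lung cancer cell lines in 1536-well plates were pin-tool dosed one day after seeding with one drug alone or with a fixed anchor-drug dose plus five library-drug doses (not always all listed) in √10 steps, then fixed, stained and imaged at 4× after 5 days.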

[2] = compound: C1COCCN1C2=NC(=NC3=C2OC4=C3C=CC=N4)C5=CC(=CC=C5)NC(=O)C6=CN=C(C=C6)N + N=C(N)NC(=N)NCCc1ccccc1 [Phenformin] (partner 250 µM)
Method in brief: as §1

[3] = compound: CN1CCC(CNc2ccc3ncc(-c4cccc(OC(F)(F)F)c4)n3n2)CC1 [SGI-1776] + CC(C)C[C@H](NC(=O)[C@H](Cc1ccccc1)NC(=O)c1cnccn1)B(O)O [Bortezomib] (partner 0.002 µM)
Method in brief: as §1

[4] = compound: Nc1ccccc1NC(=O)c1ccc(CNC(=O)OCc2cccnc2)cc1 [Entinostat] + CC(C)C[C@H](NC(=O)[C@H](Cc1ccccc1)NC(=O)c1cnccn1)B(O)O [Bortezomib] (partner 0.002 µM)
Method in brief: as §1

NCI-H23
relative viability ([1]; first compound 0.02 µM): 0.605
relative viability ([1]; first compound 0.2 µM): 0.435
relative viability ([1]; first compound 0.6325 µM): 0.351
relative viability ([1]; first compound 2 µM): 0.398
relative viability ([2]; first compound 0.02 µM): 0.818
relative viability ([2]; first compound 0.2 µM): 0.815
relative viability ([2]; first compound 0.6325 µM): 0.747
relative viability ([2]; first compound 2 µM): 0.669
relative viability ([3]; first compound 0.08 µM): 0.997
relative viability ([3]; first compound 0.8 µM): 1.09
relative viability ([3]; first compound 2.53 µM): 1.07
relative viability ([3]; first compound 8 µM): 0.991
relative viability ([4]; first compound 0.02 µM): 0.91
relative viability ([4]; first compound 0.06325 µM): 1.41
relative viability ([4]; first compound 0.2 µM): 1.12
relative viability ([4]; first compound 0.6325 µM): 0.808
relative viability ([4]; first compound 2 µM): 0.497

NCI-H322M
relative viability ([1]; first compound 0.02 µM): 0.526
relative viability ([1]; first compound 0.06325 µM): 0.523
relative viability ([1]; first compound 0.2 µM): 0.544
relative viability ([1]; first compound 0.6325 µM): 0.49
relative viability ([1]; first compound 2 µM): 0.416
relative viability ([2]; first compound 0.02 µM): 0.781
relative viability ([2]; first compound 0.06325 µM): 0.786
relative viability ([2]; first compound 0.2 µM): 0.683
relative viability ([2]; first compound 0.6325 µM): 0.735
relative viability ([2]; first compound 2 µM): 0.508
relative viability ([3]; first compound 0.08 µM): 1.3
relative viability ([3]; first compound 0.8 µM): 1.26
relative viability ([3]; first compound 2.53 µM): 1.21
relative viability ([3]; first compound 8 µM): 1.07
relative viability ([4]; first compound 0.02 µM): 1.33
relative viability ([4]; first compound 0.06325 µM): 1.33
relative viability ([4]; first compound 0.2 µM): 1.31
relative viability ([4]; first compound 0.6325 µM): 1.27
relative viability ([4]; first compound 2 µM): 1.3

NCI-H441
relative viability ([1]; first compound 0.02 µM): 0.588
relative viability ([1]; first compound 0.06325 µM): 0.511
relative viability ([1]; first compound 0.2 µM): 0.507
relative viability ([1]; first compound 0.6325 µM): 0.58
relative viability ([1]; first compound 2 µM): 0.327
relative viability ([2]; first compound 0.02 µM): 0.798
relative viability ([2]; first compound 0.06325 µM): 0.868
relative viability ([2]; first compound 0.2 µM): 0.731
relative viability ([2]; first compound 0.6325 µM): 0.833
relative viability ([2]; first compound 2 µM): 0.527
relative viability ([3]; first compound 0.08 µM): 0.376
relative viability ([3]; first compound 0.8 µM): 0.443
relative viability ([3]; first compound 2.53 µM): 0.529
relative viability ([3]; first compound 8 µM): 0.332
relative viability ([4]; first compound 0.02 µM): 0.443
relative viability ([4]; first compound 0.06325 µM): 0.598
relative viability ([4]; first compound 0.2 µM): 0.409
relative viability ([4]; first compound 0.6325 µM): 0.181
relative viability ([4]; first compound 2 µM): 0.118

NCI-H460
relative viability ([1]; first compound 0.02 µM): 0.578
relative viability ([1]; first compound 0.06325 µM): 0.639
relative viability ([1]; first compound 0.2 µM): 0.505
relative viability ([1]; first compound 0.6325 µM): 0.237
relative viability ([1]; first compound 2 µM): 0.185
relative viability ([2]; first compound 0.02 µM): 0.554
relative viability ([2]; first compound 0.06325 µM): 0.57
relative viability ([2]; first compound 0.2 µM): 0.512
relative viability ([2]; first compound 0.6325 µM): 0.144
relative viability ([2]; first compound 2 µM): 0.0234
relative viability ([3]; first compound 0.08 µM): 1.18
relative viability ([3]; first compound 0.8 µM): 1.2
relative viability ([3]; first compound 2.53 µM): 1.11
relative viability ([3]; first compound 8 µM): 0.82
relative viability ([4]; first compound 0.02 µM): 1.09
relative viability ([4]; first compound 0.06325 µM): 1.05
relative viability ([4]; first compound 0.2 µM): 0.85
relative viability ([4]; first compound 0.6325 µM): 0.0581
relative viability ([4]; first compound 2 µM): 0.0179

NCI-H520
relative viability ([1]; first compound 0.02 µM): 0.263
relative viability ([1]; first compound 0.06325 µM): 0.257
relative viability ([1]; first compound 0.2 µM): 0.233
relative viability ([1]; first compound 0.6325 µM): 0.263
relative viability ([1]; first compound 2 µM): 0.211
relative viability ([2]; first compound 0.02 µM): 0.597
relative viability ([2]; first compound 0.06325 µM): 0.631
relative viability ([2]; first compound 0.2 µM): 0.588
relative viability ([2]; first compound 0.6325 µM): 0.479
relative viability ([2]; first compound 2 µM): 0.403
relative viability ([3]; first compound 0.08 µM): 0.859
relative viability ([3]; first compound 0.8 µM): 0.776
relative viability ([3]; first compound 2.53 µM): 0.716
relative viability ([3]; first compound 8 µM): 0.22
relative viability ([4]; first compound 0.02 µM): 0.602
relative viability ([4]; first compound 0.06325 µM): 0.667
relative viability ([4]; first compound 0.2 µM): 0.558
relative viability ([4]; first compound 0.6325 µM): 0.195
relative viability ([4]; first compound 2 µM): 0.161

NCI-H596
relative viability ([1]; first compound 0.02 µM): 0.674
relative viability ([1]; first compound 0.06325 µM): 0.735
relative viability ([1]; first compound 0.2 µM): 0.65
relative viability ([1]; first compound 0.6325 µM): 0.526
relative viability ([1]; first compound 2 µM): 0.373
relative viability ([2]; first compound 0.02 µM): 0.768
relative viability ([2]; first compound 0.06325 µM): 0.916
relative viability ([2]; first compound 0.2 µM): 0.754
relative viability ([2]; first compound 0.6325 µM): 0.598
relative viability ([2]; first compound 2 µM): 0.61
relative viability ([3]; first compound 0.08 µM): 0.924
relative viability ([3]; first compound 0.8 µM): 1.08
relative viability ([3]; first compound 2.53 µM): 0.95
relative viability ([3]; first compound 8 µM): 0.973
relative viability ([4]; first compound 0.02 µM): 1.09
relative viability ([4]; first compound 0.06325 µM): 1.16
relative viability ([4]; first compound 0.2 µM): 1
relative viability ([4]; first compound 0.6325 µM): 0.974
relative viability ([4]; first compound 2 µM): 0.902

NCI-H647
relative viability ([1]; first compound 0.02 µM): 0.572
relative viability ([1]; first compound 0.06325 µM): 0.722
relative viability ([1]; first compound 0.2 µM): 0.748
relative viability ([1]; first compound 0.6325 µM): 0.442
relative viability ([1]; first compound 2 µM): 0.306
relative viability ([2]; first compound 0.02 µM): 0.574
relative viability ([2]; first compound 0.06325 µM): 0.768
relative viability ([2]; first compound 0.2 µM): 0.466
relative viability ([2]; first compound 0.6325 µM): 0.519
relative viability ([2]; first compound 2 µM): 0.195
relative viability ([3]; first compound 0.08 µM): 1.24
relative viability ([3]; first compound 0.8 µM): 0.964
relative viability ([3]; first compound 2.53 µM): 0.888
relative viability ([3]; first compound 8 µM): 0.837
relative viability ([4]; first compound 0.02 µM): 1.02
relative viability ([4]; first compound 0.06325 µM): 1.01
relative viability ([4]; first compound 0.2 µM): 0.869
relative viability ([4]; first compound 0.6325 µM): 0.216
relative viability ([4]; first compound 2 µM): 0.0717

NCI-H650
relative viability ([1]; first compound 0.02 µM): 0.545
relative viability ([1]; first compound 0.06325 µM): 0.511
relative viability ([1]; first compound 0.2 µM): 0.488
relative viability ([1]; first compound 0.6325 µM): 0.474
relative viability ([1]; first compound 2 µM): 0.478
relative viability ([2]; first compound 0.02 µM): 0.453
relative viability ([2]; first compound 0.06325 µM): 0.469
relative viability ([2]; first compound 0.2 µM): 0.417
relative viability ([2]; first compound 0.6325 µM): 0.457
relative viability ([2]; first compound 2 µM): 0.431
relative viability ([3]; first compound 0.08 µM): 0.95
relative viability ([3]; first compound 0.8 µM): 0.755
relative viability ([3]; first compound 2.53 µM): 0.836
relative viability ([3]; first compound 8 µM): 0.622
relative viability ([4]; first compound 0.02 µM): 1.02
relative viability ([4]; first compound 0.06325 µM): 0.916
relative viability ([4]; first compound 0.2 µM): 0.773
relative viability ([4]; first compound 0.6325 µM): 0.426
relative viability ([4]; first compound 2 µM): 0.171

NCI-H661
relative viability ([1]; first compound 0.02 µM): 0.709
relative viability ([1]; first compound 0.06325 µM): 0.7
relative viability ([1]; first compound 0.2 µM): 0.659
relative viability ([1]; first compound 0.6325 µM): 0.619
relative viability ([1]; first compound 2 µM): 0.539
relative viability ([2]; first compound 0.02 µM): 0.268
relative viability ([2]; first compound 0.06325 µM): 0.3
relative viability ([2]; first compound 0.2 µM): 0.263
relative viability ([2]; first compound 0.6325 µM): 0.248
relative viability ([2]; first compound 2 µM): 0.206
relative viability ([3]; first compound 0.08 µM): 0.963
relative viability ([3]; first compound 0.8 µM): 0.858
relative viability ([3]; first compound 2.53 µM): 0.833
relative viability ([3]; first compound 8 µM): 0.649
relative viability ([4]; first compound 0.02 µM): 0.956
relative viability ([4]; first compound 0.06325 µM): 0.883
relative viability ([4]; first compound 0.2 µM): 0.861
relative viability ([4]; first compound 0.6325 µM): 0.781
relative viability ([4]; first compound 2 µM): 0.7

— the supplement of paper PMC10307832
